Test results reported in patent US8476043B2, “Inhibitors for the soluble epoxide hydrolase” (The Regents of the University of California, priority 2004, dated 2013).
Converted amounts (≈) assume the structure as drawn.

Assays:
Solubility in water = assay type: physicochemical
Solubility in oil = assay type: physicochemical; settings: Table 5
human sEH [1] = target: T1, human sEH (Homo sapiens, UniProt P34913); test: sEH inhibition, spectrometric assay with racemic 4-nitrophenyl-trans-2,3-epoxy-3-phenylpropyl carbonate as substrate; assay type: biochemical; settings: Table 5; spectrometric-based assay; read-out: Human sEH IC50
T1 construct: made in house
T1 sequence (P34913 1-555): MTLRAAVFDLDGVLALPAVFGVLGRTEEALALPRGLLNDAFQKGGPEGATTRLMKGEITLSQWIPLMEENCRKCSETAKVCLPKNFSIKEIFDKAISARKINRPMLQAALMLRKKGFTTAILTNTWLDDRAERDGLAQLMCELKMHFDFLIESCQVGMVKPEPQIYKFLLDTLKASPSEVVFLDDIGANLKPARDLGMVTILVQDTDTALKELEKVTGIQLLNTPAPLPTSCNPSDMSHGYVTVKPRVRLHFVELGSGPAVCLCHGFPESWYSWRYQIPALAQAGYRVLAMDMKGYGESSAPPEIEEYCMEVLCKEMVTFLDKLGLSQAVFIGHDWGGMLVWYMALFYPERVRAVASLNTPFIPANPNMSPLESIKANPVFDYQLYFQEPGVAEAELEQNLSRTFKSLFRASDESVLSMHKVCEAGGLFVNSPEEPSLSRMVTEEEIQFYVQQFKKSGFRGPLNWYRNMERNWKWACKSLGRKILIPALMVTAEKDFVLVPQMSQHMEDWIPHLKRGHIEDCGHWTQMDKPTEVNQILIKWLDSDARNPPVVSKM
Protocol: (§1) Recombinant mouse sEH and human sEH were produced in a baculovirus expression system and purified by affinity chromatography. […] Protein concentration was quantified by using the Pierce BCA assay using Fraction V bovine serum albumin as the calibrating standard.
(§2) IC50 values were determined in one of two method. One method uses racemic 4-nitrophenyl-trans-2,3-epoxy-3-phenylpropyl carbonate as substrate. […] Assays were performed in triplicate. […] The curve was generated from at least three separate runs, each in triplicate, to obtain the standard deviation (SD) given in Table 1 thru Table 4.

mouse sEH = target: T2, mouse sEH (Mus musculus, UniProt P34914); test: as above; assay type: biochemical; settings: Table 5; spectrometric-based assay; read-out: Mouse sEH IC50
T2 construct: made in house
T2 sequence (P34914 1-554): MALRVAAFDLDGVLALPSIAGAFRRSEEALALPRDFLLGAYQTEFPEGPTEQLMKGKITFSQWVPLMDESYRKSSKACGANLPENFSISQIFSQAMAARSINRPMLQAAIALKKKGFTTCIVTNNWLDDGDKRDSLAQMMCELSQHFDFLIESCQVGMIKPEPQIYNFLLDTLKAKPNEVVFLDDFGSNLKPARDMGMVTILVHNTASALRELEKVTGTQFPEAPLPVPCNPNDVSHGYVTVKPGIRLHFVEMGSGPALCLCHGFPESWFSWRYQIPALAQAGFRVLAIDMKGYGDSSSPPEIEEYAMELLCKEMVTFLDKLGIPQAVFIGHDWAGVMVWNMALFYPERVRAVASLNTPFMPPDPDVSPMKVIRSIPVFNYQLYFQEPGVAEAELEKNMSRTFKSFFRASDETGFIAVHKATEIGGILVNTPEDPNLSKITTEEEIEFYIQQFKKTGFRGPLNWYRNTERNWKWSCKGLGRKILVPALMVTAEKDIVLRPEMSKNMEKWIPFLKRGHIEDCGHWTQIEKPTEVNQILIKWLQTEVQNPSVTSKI
Protocol: as §1, §2

human sEH [2] = target: T1, human sEH; test: sEH inhibition, fluorescent assay with cyano(6-methoxy-naphthalen-2-yl)methyl trans-[(3-phenyloxiran-2-yl)methyl]carbonate as substrate; assay type: biochemical
Method in brief: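 Affinity-purified recombinant human sEH from baculovirus expression; activity followed as formation of fluorescent 6-methoxy-2-naphthaldehyde from the carbonate substrate. IC50 by regression of at least five points, two on each side of the IC50 in the linear region, from at least three separate runs, each in triplicate.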

[3] = In vitro metabolism in liver microsomes and S9 fractions; assay type: in vitro ADME; settings: rat and human microsomes, with NADPH
Excerpt: Both rat and human microsomes were used for the 950 metabolism study.

| SMILES | fold lower water solubility than compound 4 (687) (Solubility in water) [fold] | solubility (Solubility in water; water, Table 5) [µg/mL] | Solubility in oil (Solubility in oil) | IC50 (human sEH [1]) [nM] | IC50 (mouse sEH) [nM] | IC50 (human sEH [2]; Table 5, fluorescent-based assay, 0.96 nM human sEH, pH 7.0, [S] = 5 μM, read-out: Human sEH IC50) [nM] | fold improvement in inhibition of the human enzyme (human sEH [2]; compared with 687 (compound 4)) | major metabolite in vitro [3] |
| --- | --- | --- | --- | --- | --- | --- | --- | --- |
| CS(=O)(=O)NC(=O)CCCCCCCCCCCNC(=O)NC12CC3CC(CC(C3)C1)C2 [Compound 848, N-[12-(3-Adamantan-1-yl-ureido)dodecanoyl]methanesulfonamide] | 3 | 10 (≈ 21.3 µM) | 4,000 μg/mL | 100 ± 10 | 50 ± 10 | 2.1 | about 1.5 fold |  |
| CCOCCOCCOCCCCCNC(=O)NC12CC3CC(CC(C3)C1)C2 [Compound 950] |  |  |  |  |  |  |  | hydroxy metabolite was the major metabolite |
